Laboratory results as given in patent publication US8821927B2, “Pharmaceutical composition” (SmithKline Beecham (Cork) Limited, priority 2005, dated 2014).

Experiment: solubility in aqueous media
Format: physicochemical
Conditions: over the physiologically relevant pH range
Source text: Of particular interest is N-{3-Chloro-4-[(3-fluorobenzyl)oxy]phenyl}-6-[5-({[2-(methanesulphonyl)ethyl]amino}methyl)-2-furyl]-4-quinazolinamine ditosylate monohydrate.

solubility in aqueous media: poorly soluble
SMILES: CS(=O)(=O)CCNCc1ccc(-c2ccc3ncnc(Nc4ccc(OCc5cccc(F)c5)c(Cl)c4)c3c2)o1 [GW572016, N-{3-Chloro-4-[(3-fluorobenzyl)oxy]phenyl}-6-[5-({[2-(methanesulphonyl)ethyl]amino}methyl)-2-furyl]-4-quinazolinamine]
